{
  "source": "patent US20110165113A1",
  "about": "“POLYMER CONJUGATES OF V681-LIKE PEPTIDES” (Nektar Therapeutics, priority 2008, published 2011)",
  "test": "Pharmacokinetics after a single IV dose in rats",
  "conditions": "male, Sprague-Dawley, rat, in vivo, equivalent protein mass of 1.0 mg/kg",
  "text": "The weight range of the animals was 311-346 grams. All animals were food fasted overnight. […] The predose sample was collected from the JVC.\nFollowing the last collection point, the animals were euthanized.",
  "note": "Square brackets hold non-standard residues; d marks the D form. Peptide text beside a SMILES is read from it.",
  "data": [
    {"smiles": "CC[C@H](C)[C@H](NC(=O)[C@H](C)NC(=O)[C@H](CCCCN)NC(=O)[C@H](CC(C)C)NC(=O)[C@H](C)NC(=O)[C@@H](NC(=O)[C@H](Cc1c[nH]cn1)NC(=O)[C@H](CC(C)C)NC(=O)[C@@H](NC(=O)[C@@H](NC(=O)[C@H](CCCCN)NC(=O)[C@@H](C)NC(=O)[C@H](C)NC(=O)[C@H](CO)NC(=O)[C@H](CCCCN)NC(=O)[C@H](Cc1ccccc1)NC(=O)[C@@H](NC(=O)[C@H](CCCCN)NC(=O)[C@H](CC(C)C)NC(=O)[C@H](Cc1ccccc1)NC(=O)[C@H](CO)NC(=O)[C@H](CCCCN)NC(=O)[C@H](Cc1c[nH]c2ccccc12)NC(=O)[C@H](CCCCN)NC(C)=O)[C@@H](C)O)[C@@H](C)O)C(C)C)[C@@H](C)O)C(=O)N[C@@H](CO)C(=O)N[C@@H](CO)C(N)=O", "note": "[V681 (V13AD)] (Ac-KWKSFLKTFKSA[dA]KTVLHTALKAISS-NH2)", "values": [
      {"measurement": "AUC(0-inf)", "value": "7210 ± 1430", "unit": "ng·h/mL"},
      {"measurement": "Cmax", "value": "16500 ± 9670", "unit": "ng/mL"},
      {"measurement": "MRT", "value": "19.8 ± 4.8", "unit": "min"},
      {"measurement": "clearance", "value": 2.37, "unit": "mL/min/kg"},
      {"measurement": "half-life", "value": "36.6 ± 23.4", "unit": "min"},
      {"measurement": "Vd", "setting": "read-out: Vss", "value": "0.0477 ± 0.018", "unit": "L/kg"}
    ]}
  ]
}
